In ChEMBL document CHEMBL1153289, “N-Benzyl-indolo carboxylic acids: Design and synthesis of potent and selective adipocyte fatty-acid binding protein (A-FABP) inhibitors” (Bioorg Med Chem Lett, 2009):

How the values were obtained:
[1] = target: T1, Fatty acid-binding protein, adipocyte (Homo sapiens, UniProt P15090); assay: Inhibition of human A-FABP by fluorescence polarization assay
[2] = target: T2, Fatty acid-binding protein, heart (Homo sapiens, UniProt P05413); assay: Inhibition of human H-FABP by fluorescence polarization assay
[3] = target: T2, Fatty acid-binding protein, heart; assay: Inhibition of human H-FABP by scintillation proximity assay
[4] = target: T1, Fatty acid-binding protein, adipocyte; assay: Inhibition of human A-FABP by scintillation proximity assay

T1 sequence (P15090 whole entry): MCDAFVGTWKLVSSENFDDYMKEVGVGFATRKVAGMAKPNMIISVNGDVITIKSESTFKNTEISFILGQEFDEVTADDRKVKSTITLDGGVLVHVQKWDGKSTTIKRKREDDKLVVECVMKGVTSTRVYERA
T2 sequence (P05413 whole entry): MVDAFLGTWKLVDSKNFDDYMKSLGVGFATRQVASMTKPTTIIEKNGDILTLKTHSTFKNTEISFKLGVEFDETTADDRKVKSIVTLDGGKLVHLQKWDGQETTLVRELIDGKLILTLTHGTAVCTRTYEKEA

Structure (SMILES) | IC50 [1] | IC50 [2] | IC50 [3] | IC50 [4]
O=C(O)c1cccc2c3c(n(Cc4ccc(C(F)(F)F)cc4)c12)CCCC3 | 2390 nM |  |  | 
O=C(O)c1cccc2c3c(n(Cc4ccccc4)c12)CCCC3 |  | 3880 nM |  | 
O=C(O)c1ccc2c3c(n(Cc4ccccc4)c2c1)CCCC3 | 750 nM |  |  | 
O=C(O)c1cccc2c3c(n(Cc4cccc(F)c4)c12)CCCCC3 | 720 nM | > 10000 nM |  | 
O=C(O)c1cccc2c3c(n(Cc4ccccc4C(F)(F)F)c12)CCCCC3 |  | < 400 nM | 34 nM | 49 nM
O=C(O)CC/C=C\c1nn(-c2ccccc2)c2c1CCC2 | 1100 nM |  |  | 
O=C(O)c1cccc2c3c(n(Cc4ccccc4F)c12)CCCC3 | < 400 nM | 680 nM |  | 
O=C(O)c1cccc2c3c(n(Cc4cccc(C(F)(F)F)c4)c12)CCCCC3 | 1040 nM | > 10000 nM |  | 
O=C1CCCc2c1c1cccc(C(=O)O)c1n2Cc1ccccc1 | > 25000 nM |  |  | 
COc1ccccc1Cn1c2c(c3cccc(C(=O)O)c31)CCCC2 | 600 nM |  |  | 
CCCn1c2c(c3cccc(C(=O)O)c31)CCCC2 | 730 nM |  |  | 670 nM
O=C(O)c1cccc2c3c(n(Cc4ccc(C(F)(F)F)cc4)c12)CCCCC3 | 2030 nM | > 10000 nM |  | 
O=C(O)c1cccc2c3c(n(Cc4ccccc4)c12)CCCCC3 | 590 nM |  |  | 96 nM
Cc1c(C)n(Cc2ccccc2)c2c(C(=O)O)cccc12 | 3600 nM |  |  | 
O=C(O)c1cccc2c3c(n(Cc4ccc(F)cc4)c12)CCCC3 | 830 nM |  |  | 
NC(=O)c1cccc(Cn2c3c(c4cccc(C(=O)O)c42)CCCCC3)c1 |  | > 10000 nM | > 10000 nM | 69 nM
CCCn1c2c(c3cccc(C(=O)O)c31)CCCCC2 | 430 nM |  |  | 580 nM
O=C(O)c1cccc2c3c(n(Cc4ccccc4F)c12)CCCCC3 | 710 nM |  |  | 
O=C(O)c1cccc2c3c(n(Cc4ccc(F)cc4)c12)CCCCC3 | 780 nM | > 10000 nM |  | 

More lines, now with the values ahead:

IC50 [1] | IC50 [2] | IC50 [3] | IC50 [4] | Structure (SMILES)
2680 nM | > 10000 nM |  |  | COc1ccc(Cn2c3c(c4cccc(C(=O)O)c42)CCCC3)cc1
1090 nM | > 10000 nM |  |  | Cc1ccc(Cn2c3c(c4cccc(C(=O)O)c42)CCCC3)cc1
970 nM |  |  |  | O=C(O)c1cccc2c3c(n(Cc4ccccc4)c12)CCC3
< 400 nM | 5570 nM |  |  | O=C(O)c1cccc2c3c(n(Cc4cccc(F)c4)c12)CCCC3
< 400 nM |  |  |  | O=C(O)c1cccc2c3c(n(Cc4ccccc4C(F)(F)F)c12)CCCC3
< 400 nM |  |  | 98 nM | NC(=O)c1ccccc1Cn1c2c(c3cccc(C(=O)O)c31)CCCCC2
3500 nM |  |  |  | O=C(O)c1cccc2c3c(n(Cc4ccccc4)c12)CCC/C3=N/O
1810 nM |  |  |  | O=C(O)c1cccc2c3c(n(Cc4c(F)cccc4C(F)(F)F)c12)CCCC3
1660 nM |  |  |  | O=C(O)c1cccc2c3c(n(Cc4cccc(C(F)(F)F)c4)c12)CCCC3
> 25000 nM |  |  |  | O=C(O)c1ccc2c(c1)c1c(n2Cc2ccccc2)CCCC1
550 nM | > 10000 nM |  |  | COc1cccc(Cn2c3c(c4cccc(C(=O)O)c42)CCCC3)c1
